Consider six compounds from article PMC3761967 (Bioorganic & medicinal chemistry, 2012).

Where no end group is shown, it is not given here. The star is where a group is joined. Dansyl = CN(C)c1cccc2c(S(=O)(=O)*)cccc12

One data set concerns recombinant human FTase. The note with it: cited from earlier work.
Data set [1] concerns Ras processing in ras-transformed NIH3T3. The note with it: cited from earlier work.
Another data set concerns tobacco BY-2 cells. The following applies: cited from earlier work.
The next data set relates to rubber transferase. The following applies: rubber transferase from Hevea Brasiliensis; cited from earlier work.
The subject of data set [2] is PBP1b (penicillin-binding protein 1b). The following applies: cited from earlier work.
Another data set deals with Ras/ERK1/2 pathway. The note with it: rats; cited from earlier work.
For data set [3], the system named is membrane-bound Ha-Ras / Ki-Ras. The note with it: cited from earlier work.
In a further data set the test system is Ha-Ras. The note with it: murine ischemic stroke model; cited from earlier work.
For data set [4] the following is noted: mild basic conditions (pH=7.5), hydrolysed to dicarboxylate anion 2; ref 10a; cited from earlier work.
In another data set the target is T1, yeast FTase (Saccharomyces cerevisiae, UniProt P22007+P29703).
T1 sequence (P29703 1-316): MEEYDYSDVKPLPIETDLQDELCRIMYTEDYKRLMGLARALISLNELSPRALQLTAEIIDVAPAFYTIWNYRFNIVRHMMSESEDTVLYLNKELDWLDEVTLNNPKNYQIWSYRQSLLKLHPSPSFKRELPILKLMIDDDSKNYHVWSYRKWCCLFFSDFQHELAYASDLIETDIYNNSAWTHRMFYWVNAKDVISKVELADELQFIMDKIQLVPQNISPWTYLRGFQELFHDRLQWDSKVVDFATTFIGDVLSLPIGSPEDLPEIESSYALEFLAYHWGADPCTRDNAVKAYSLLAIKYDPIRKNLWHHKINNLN
T1 sequence (P22007 1-431): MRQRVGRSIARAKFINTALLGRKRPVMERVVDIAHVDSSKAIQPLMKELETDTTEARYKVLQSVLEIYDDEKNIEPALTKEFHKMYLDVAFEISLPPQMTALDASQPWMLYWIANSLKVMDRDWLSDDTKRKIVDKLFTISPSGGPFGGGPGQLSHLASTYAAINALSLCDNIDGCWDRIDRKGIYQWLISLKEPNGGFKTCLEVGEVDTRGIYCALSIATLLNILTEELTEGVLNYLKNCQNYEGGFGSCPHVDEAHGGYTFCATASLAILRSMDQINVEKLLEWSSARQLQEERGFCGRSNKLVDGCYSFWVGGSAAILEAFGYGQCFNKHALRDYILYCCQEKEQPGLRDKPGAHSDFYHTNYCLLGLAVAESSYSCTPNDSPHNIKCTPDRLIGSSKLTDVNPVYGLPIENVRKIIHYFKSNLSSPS
As to the kind of experiment: Yeast FTase continuous fluorescence assay. The following applies: yeast FTase IC50, 27 vs 2. It is filed as biochemical.

In a further data set the test system is wild FTase. The following applies: peptide substrate; cited from earlier work.

Turning to `CCCCCCCCCCCCCC/C(C(=O)O)=C(\C)C(=O)O` [compound 1, chaetomellic acid A], in the data set with recombinant human FTase (diacid anion of 1), the “Mode of FTase inhibition towards the acceptor peptide Ras” value is “noncompetitive” and the “Mode of FTase inhibition with respect to farnesyl pyrophosphate (FPP)” value is “highly competitive”. The “Inhibition of Ras processing” value in data set [1] is listed as “did not inhibit”. Besides, in the data set on tobacco BY-2 cells, the “Effect on cell cycle progression” value is “specific arrest in the cell cycle”. Also, the “Inhibition of rubber biosynthesis in vitro” value in the data set with rubber transferase is “able to inhibit”. In data set [2], the “Reduction of PBP1b activity” value is listed as “modest potency”. Also, the “Effect on acute ischemia-reperfusion injury (renal function and histology)” value in the data set with Ras/ERK1/2 pathway is listed as “beneficial effect”. Moreover, in data set [3], the “Effect on membrane-bound Ha-Ras” value is “selectively inhibited” and the “Effect on membrane-bound Ki-Ras” value was “did not alter”. Also, the “Production of superoxide anion and volume of cerebral necrotic tissue” value with Ha-Ras is listed as “significantly reducing”.

Take `CCCCCCCCCCCCCC/C(C(=O)O)=C(\C)C(=O)O` [compound 2]: the IC50 (as a rule, the concentration that inhibits the measured activity by half) at recombinant human FTase (read-out: IC50 recombinant human FTase, dianionic form) is 55 nM.

In the case of `CCCCCCCCCCCCCCC1=C(C)C(=O)OC1=O` [compound 3, chaetomellic anhydride A], the “Stability of the cyclic (anhydride) form” value in data set [4] is “unstable”.

As to `CCCCSCCCCCCCCC/C(C(=O)[O-])=C(\C)C(=O)[O-].[Na+].[Na+]` [compound 27, disodium salt of 2-(9-(butylthio)nonyl)-3-methylmaleic acid], on yeast FTase, the “times more potent than ACA” value was “approximately 5”.

On to “dansyl-Gly-Cys-Val-Ile-Ala (Dansyl-GCVIA)”, for which the kcat – broadly, the number of substrate molecules converted per active site and unit of time at saturation – with wild FTase is greater than 0.2 s⁻¹.

On to “dansyl-Gly-Cys-Val-Leu-Ser (Dansyl-GCVLS)”, for which the kcat in the data set with wild FTase was 0.4 s⁻¹.
